For the experiment, the system named is human breast cancer cell BT-474. As to the kind of experiment: Inhibitory action on breast cancer cell BT-474 proliferation in vitro. The class given is cell-based. Particulars: 120 h, BT-474 cells, cultured for 5 days with compound, SRB dye protein content. As for the experimental part: A suspension of human breast cancer cell BT-474 (100 μl (6,000 cells)) were plated in a 96-well microplate and cultured in an incubator (37° C., 5% carbon dioxide). On the following day, 100 μl of a solution of each test compound previously diluted serially in 2-fold, was added, and the cells were cultured for 5 days. After the culture medium containing the test compound was removed, the cells were washed and fixed with 50% trichloroacetic acid, after which a 0.4% (w/v) SRB dye solution (dissolved in 1% acetic acid) was added to stain as well as fix the cell protein (Skehan et al., Journal of the National Cancer Institute, Vol. 82, pp. 1107-1112, 1990). After washing with a 1% acetic acid solution, 100 μl of extract solution (10 mM, Tris buffer) was added to extract the dye and the absorbance was measured at a wavelength of 550 nm to quantify the amount of cells as protein content.
Background: In SRB staining, fixed cells bind dye roughly in proportion to their protein.
In general, IC50 refers to the concentration that gives 50% inhibition. Turning to `OCCn1ccc2ncnc(Nc3ccc(Oc4cccc5sncc45)c(Cl)c3)c21` [Example 3, 2-(4-{[4-(1,2-benzoisothiazol-4-yloxy)-3-chlorophenyl]amino}-5H-pyrrolo[3,2-d]pyrimidin-5-yl)ethanol], the half-inhibitory concentration (IC50) was < 100 nM.
In the case of `CC(=O)NCCn1ccc2ncnc(Nc3ccc(Oc4cccc5sncc45)c(Cl)c3)c21` [Example 7, N-[2-(4-{[4-(1,2-benzoisothiazol-4-yloxy)-3-chlorophenyl]amino}-5H-pyrrolo[3,2-d]pyrimidin-5-yl)ethyl]acetamide methanesulfonate], the half-inhibitory concentration (IC50) was < 100 nM.
With `CC(C)(CO)C(=O)NCCn1ccc2ncnc(Nc3ccc(Oc4cccc5sncc45)c(F)c3)c21` [Example 11, N-[2-(4-{[4-(1,2-benzoisothiazol-4-yloxy)-3-fluorophenyl]amino}-5H-pyrrolo[3,2-d]pyrimidin-5-yl)ethyl]-3-hydroxy-2,2-dimethylpropanamide] the figure was < 100 nM; with `Cc1cc(Nc2ncnc3ccn(CCNC(=O)C(C)(C)CO)c23)ccc1Oc1cccc2sncc12` [Example 39, N-[2-(4-{[4-(1,2-benzoisothiazol-4-yloxy)-3-methylphenyl]amino}-5H-pyrrolo[3,2-d]pyrimidin-5-yl)ethyl]-3-hydroxy-2,2-dimethylpropanamide], < 100 nM; with `CC(C)(N)C(=O)NCCn1ccc2ncnc(Nc3ccc(Oc4cccc5sncc45)c(Cl)c3)c21` [Example 53, N-[2-(4-{[4-(1,2-benzoisothiazol-4-yloxy)-3-chlorophenyl]amino}-5H-pyrrolo[3,2-d]pyrimidin-5-yl)ethyl]-2-methylalaninamide dimethanesulfonate], < 100 nM.
With `CC(C)NC(=O)NCCn1ccc2ncnc(Nc3ccc(Oc4cccc5sncc45)c(Cl)c3)c21` [Example 54, 1-[2-(4-{[4-(1,2-benzoisothiazol-4-yloxy)-3-chlorophenyl]amino}-5H-pyrrolo[3,2-d]pyrimidin-5-yl)ethyl]-3-(1-methylethyl)urea methanesulfonate] the figure was < 100 nM.

These data come from patent US20090233937A1 (TAKEDA PHARMACEUTICAL COMPANY LIMITED, priority 2008, published 2009).
